Results from the supplement of paper PMC10307832.

Key:
Assay in all cases: relative viability (nuclei count vs DMSO), 5 days (fraction); higher = more cells survive
[1] = compound: C[C@@H](N)c1ccc(C(=O)Nc2ccnc3[nH]ccc23)cc1 + CS(=O)(=O)CCNCc1ccc(-c2ccc3ncnc(Nc4ccc(OCc5cccc(F)c5)c(Cl)c4)c3c2)o1 [Lapatinib] (partner 2 µM)
Outline: (§1)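 Values are medians from duplicate plates. Each reflects relative viability, defined as the nuclei count of treated wells over that of vehicle wells. Lung cancer cell lines in 1536-well plates were pin-tool dosed one day after seeding with one drug alone or with a fixed anchor-drug dose plus five library-drug doses (not always all listed) in √10 steps, then fixed, stained and imaged at 4× after 5 days.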

[2] = compound: C1CNCCC1C2=CC(=NN2)C3=CC=NC=C3 + CC(=O)c1c(C)c2cnc(Nc3ccc(N4CCNCC4)cn3)nc2n(C2CCCC2)c1=O [Palbociclib] (partner 0.5 µM)
Outline: as §1

[3] = compound: C[C@@H](N)c1ccc(C(=O)Nc2ccnc3[nH]ccc23)cc1 + O=C(c1cc(Cc2n[nH]c(=O)c3ccccc23)ccc1F)N1CCN(C(=O)C2CC2)CC1 [Olaparib] (partner 8 µM)
Outline: as §1

[4] = compound: C1CNCCC1C2=CC(=NN2)C3=CC=NC=C3 + CS(=O)(=O)N1CCN(Cc2cc3nc(-c4cccc5[nH]ncc45)nc(N4CCOCC4)c3s2)CC1 [Pictilisib] (partner 1 µM)
Outline: as §1

Row | Cell Line | relative viability ([1]; first compound 0.04 µM) | relative viability ([1]; first compound 0.1265 µM) | relative viability ([1]; first compound 0.4 µM) | relative viability ([1]; first compound 1.265 µM) | relative viability ([1]; first compound 4 µM) | relative viability ([2]; first compound 0.08 µM) | relative viability ([2]; first compound 0.8 µM) | relative viability ([2]; first compound 2.53 µM) | relative viability ([2]; first compound 8 µM) | relative viability ([3]; first compound 0.1265 µM) | relative viability ([3]; first compound 0.4 µM) | relative viability ([3]; first compound 1.265 µM) | relative viability ([3]; first compound 4 µM) | relative viability ([4]; first compound 0.08 µM) | relative viability ([4]; first compound 0.8 µM) | relative viability ([4]; first compound 2.53 µM) | relative viability ([4]; first compound 8 µM) | relative viability ([3]; first compound 0.04 µM)
1 | LU99A | 1.1 | 1.09 | 1.13 | 0.753 | 0.906 | 0.405 | 0.389 | 0.435 | 0.391 | 0.231 | 0.253 | 0.275 | 0.281 | 0.321 | 0.366 | 0.316 | 0.307 | –
2 | PC-14 | 0.292 | 0.344 | 0.295 | 0.271 | 0.329 | 0.531 | 0.585 | 0.613 | 0.468 | 0.233 | 0.263 | 0.29 | 0.271 | 0.716 | 0.763 | 0.842 | 0.661 | 0.281
3 | NCI-H2085 | 0.841 | 0.729 | 0.872 | 0.546 | 0.799 | 0.519 | – | 0.481 | 0.485 | 0.726 | 0.667 | 0.706 | 0.619 | 0.406 | – | 0.448 | 0.546 | 0.762
4 | NCI-H2170 | 0.28 | 0.273 | 0.302 | 0.323 | 0.26 | 0.36 | 0.454 | 0.407 | 0.4 | 0.584 | 0.614 | 0.746 | 0.543 | 0.278 | 0.304 | 0.309 | 0.364 | 0.618
5 | HCC-78 | 1.3 | 0.767 | 1.15 | 0.171 | 0.677 | 0.503 | 0.429 | 0.472 | 0.479 | 0.964 | 1.16 | 1.4 | 1.08 | 0.21 | – | 0.189 | 0.223 | 1.05
6 | NCI-H1395 | 0.935 | 1.2 | 0.954 | – | 0.941 | 0.652 | 0.587 | 0.644 | 0.613 | 0.511 | 0.406 | – | 0.393 | 0.837 | 0.535 | 0.677 | 0.785 | 0.473
7 | NCI-H2126 | 0.825 | 0.866 | 0.764 | 0.859 | 0.966 | 0.364 | 0.368 | 0.322 | 0.354 | 0.946 | 0.915 | 0.988 | 0.948 | 0.521 | 0.492 | 0.55 | 0.539 | 0.945
8 | H3255 | 0.306 | 0.304 | 0.302 | 0.334 | 0.306 | 0.309 | 0.338 | 0.327 | 0.346 | 0.607 | 0.606 | 0.558 | 0.48 | 0.469 | 0.477 | 0.511 | 0.442 | 0.533
9 | HCC-15 | 0.827 | 0.789 | 0.854 | – | 0.785 | 0.734 | 0.849 | 0.79 | 0.699 | 0.731 | 0.726 | 0.693 | 0.743 | 0.738 | 0.772 | 0.722 | 0.75 | 0.744
10 | NCI-H661 | 0.503 | 0.587 | 0.607 | 0.401 | 0.449 | 0.416 | 0.394 | 0.394 | 0.417 | 0.722 | 0.895 | 0.706 | 0.597 | 0.516 | 0.422 | 0.522 | 0.445 | 0.734
11 | NCI-H2009 | 0.682 | 0.736 | 0.916 | 0.114 | 0.747 | 0.123 | 0.148 | 0.189 | 0.238 | 0.666 | 0.611 | 0.595 | 0.547 | 0.81 | 0.859 | 0.872 | 0.859 | 0.657
12 | HCC-44 | 1.09 | 1.02 | 1.04 | 1.18 | 0.916 | 0.994 | 0.997 | 1 | 0.97 | 0.966 | 0.966 | 1.05 | 0.889 | 0.585 | 0.648 | 0.716 | 0.593 | 0.949
13 | COR-L23 | 0.948 | 1.01 | 0.897 | 0.895 | 0.576 | 0.307 | 0.278 | 0.29 | 0.291 | 0.341 | 0.322 | 0.277 | 0.176 | 0.824 | 0.903 | 0.924 | 0.832 | 0.296
14 | EMC-BAC-2 | 0.86 | 0.896 | 0.898 | 0.986 | 0.897 | 0.435 | 0.513 | 0.531 | 0.523 | 0.516 | 0.477 | 0.505 | 0.425 | 0.449 | 0.613 | 0.544 | 0.517 | –
15 | LK-2 | 1.06 | 0.693 | 0.975 | 0.814 | 0.733 | – | 0.658 | 0.801 | 0.735 | 0.658 | 0.746 | 0.482 | 0.864 | 0.452 | 0.746 | 0.572 | 0.623 | 0.732
16 | SW 1573 | 1.3 | 1.14 | 1.18 | 1.04 | 1.08 | – | 0.471 | 0.405 | 0.411 | 0.531 | 0.446 | 0.44 | 0.361 | 0.516 | 0.533 | 0.496 | 0.509 | 0.534
17 | NCI-H2405 | – | 1.18 | 1.05 | 0.487 | 0.351 | 0.502 | 0.519 | 0.586 | 0.507 | 0.863 | 0.741 | 0.587 | 0.337 | 0.442 | 0.441 | 0.373 | 0.366 | –
18 | NCI-H2087 | 0.85 | 1.22 | 0.831 | 0.148 | 0.825 | 0.18 | 0.22 | 0.196 | 0.276 | 0.598 | 0.605 | 0.625 | 0.576 | 0.855 | 1.03 | 1.1 | 1.09 | 0.733
19 | NCI-H460 | 0.974 | 1.1 | 0.984 | 1.12 | 1.03 | 0.105 | 0.179 | 0.315 | 0.303 | 0.429 | 0.521 | 0.579 | 0.571 | 0.423 | 0.289 | 0.436 | 0.385 | 0.342
20 | LOU-NH91 | 0.701 | 0.749 | 0.801 | 0.575 | 0.709 | 0.539 | 0.539 | 0.545 | 0.589 | 0.911 | 0.875 | 0.74 | 0.593 | 0.545 | 0.521 | 0.522 | 0.49 | 0.824
21 | NCI-H1651 | 1.04 | 0.859 | 0.975 | 0.784 | 0.967 | 0.456 | 0.493 | 0.521 | 0.525 | 0.174 | 0.179 | 0.24 | 0.221 | 0.637 | 0.711 | 0.601 | 0.664 | 0.195
